From US7517517B2 (Janssen Pharmaceutica N.V., priority 2002, dated 2009) come the findings set out here.

The structures appear in SMILES notation.

The target of assay [1] is T1, rat mGlu1a receptor (Rattus norvegicus, UniProt P23385).
T1 construct: host or cells: CHO-dhfr- cells
Description: [3H]quisqualate binding to rat mGlu1a receptor CHO-dhfr− membranes (saturation, inhibition).

Assay [2] has as its target T2, glycine site of the NMDA receptor (Rattus norvegicus, UniProt P35439).
T2 construct: from tissue; host or cells: rat forebrain membranes
In words: [3H]L689560 binding to rat forebrain membranes. Conditions: [3H]L689560, rat forebrain; tested up to 10 μM. Here is the method: (§1) Tissue preparation. Male Wistar rats (˜200 g) were sacrificed by decapitation. The brains were rapidly removed and forebrain was dissected. The tissue was homogenized with an Ultra Turrax in 20 volumes of ice-cold H2O and was centrifuged at 48,000 g for 20 min. After homogenisation using a DUAL homogeniser, membranes were washed by centrifugation at 48,000 g for 10 min. The pellet was then suspended in 20 volumes of 50 mM Tris-HCl, pH 7.4 containing 0.04% Triton X-100 and again centrifuged at 48,000 g for 20 min. The final pellet was frozen at −80° C.
(§2) In vitro binding assay. At the day of the experiment, the pellet was thawed, washed and rehomogenised using a DUAL in ice-cold 50 mM Tris-acetate, pH 7.4. Assay conditions for the different radioligands were as follows. The final concentration of membrane in the assay was 20 mg/ml (wet weight) for [^3H]Ro 48-8587 and [^3H]L689560 and was 10 mg/ml (wet weight) for [^3H]CGP39653 and [^3H]MK-801. Radioligand concentrations of 2 nM [^3H]Ro 48-8587, 2 nM [^3H]L689560, 2 nM [^3H]CGP39653 and 3 nM [^3H]MK-801 were used. […] For [^3H]L689560 and [^3H]MK-801 binding, 100 μM D-serine or 10 μM phencyclidine were used to define non-specific binding, respectively. […] Radioactivity collected on the filters was counted as above.

For assay [3], the target named is T3, rat mGlu4 receptor (Rattus norvegicus, UniProt P31423).
T3 construct: host or cells: CHO-dhfr- cells
Description: [35S]GTPγS binding to membranes from CHO-dhfr− cells expressing the rat mGlu4 receptor. Type of assay: biochemical. Here is the method:
(§3) Confluent cells were washed in ice-cold phosphate-buffered saline and stored at −20° C. until membrane preparation. After thawing, cells were suspended in 50 mM Tris-HCl, pH 7.4 and collected through centrifugation for 10 min at 23,500 g at 4° C. The cells were lysed in 10 mM hypotonic Tris-HCl, pH 7.4. After recentrifugation for 20 min at 30,000 g at 4° C., the pellet was homogenized with an Ultra Turrax homogenizer in 50 mM Tris-HCl, pH 7.4. Protein concentrations were measured by the Bio-Rad protein assay using bovine serum albumin as standard.
(§4) Membranes were thawed on ice and diluted in 10 mM HEPES acid, 10 mM HEPES salt, pH 7.4, containing 100 mM NaCl, 3 mM MgCl2, 3 μM GDP and 10 μg/ml saponine. Assay mixtures contained 10 μg of membrane protein and were pre-incubated with compounds or buffer for 5 min at 37° C. […] [^35S]GTPγS was added to a final concentration of 0.1 nM for another 30 min at 37° C. Reactions were terminated by rapid filtration through Unifilter-96 GF/B filter plates (Packard, Meriden, Conn.) using a 96-well Packard filtermate harvester. Filters were washed 2 times with ice-cold 10 mM NaH2PO4/10 mM Na2HPO4 buffer, pH 7.4. Filter-bound radioactivity was counted in a Microplate Scintillation and Luminesence Counter from Packard.

Assay [4] concerns the target T1, rat mGlu1a receptor. Description: IP response (basal IP accumulation) in rat mGlu1a receptor expressing CHO-dhfr− cells. In kind it is cell-based.
The target of assay [5] is T4, rat mGlu2 receptor (Rattus norvegicus, UniProt P31421).
T4 construct: host or cells: CHO-dhfr- cells
Description: [35S]GTPγS binding to membranes from CHO-dhfr− cells expressing the rat mGlu2 receptor. Type of assay: biochemical. Here is the method:
as §3, §4
(GTPγS is a poorly hydrolysed GTP analogue; its binding reports G protein activation.)

The test system of assay [6] is AMPA receptor. In words: [3H]Ro 48-8587 binding to rat forebrain membranes. The following applies: [3H]Ro 48-8587, rat forebrain; tested up to 10 μM. Here is the method: as §1, §2
Assay [7] deals with glutamate site of the NMDA receptor. Description: [3H]CGP39653 binding to rat forebrain membranes. Conditions: [3H]CGP39653, rat forebrain; tested up to 10 μM. Here is the method:
as §1, §2

The target of assay [8] is T5, human mGlu1a receptor (Homo sapiens, UniProt Q13255).
T5 construct: expressed in transfected cells; host or cells: L929sA cells
Description: Intracellular Ca2+ response in human mGlu1a receptor expressing L929sA cells (FLIPR). In kind it is cell-based.

Assay [9] concerns the target T1, rat mGlu1a receptor. In words: Intracellular Ca2+ response in rat mGlu1a receptor expressing CHO-dhfr− cells (FLIPR). In kind it is cell-based.
Assay [10] addresses T6, rat mGlu6 receptor (Rattus norvegicus, UniProt P35349).
T6 construct: host or cells: CHO-dhfr- cells
In words: [35S]GTPγS binding to membranes from CHO-dhfr− cells expressing the rat mGlu6 receptor. Type of assay: biochemical. Here is the method:
as §3, §4

Assay [11] addresses T7, rat mGlu3 receptor (Rattus norvegicus, UniProt P31422).
T7 construct: host or cells: CHO-dhfr- cells
Description: [35S]GTPγS binding to membranes from CHO-dhfr− cells expressing the rat mGlu3 receptor. In kind it is biochemical. Here is the method:
as §3, §4

Assay [12] addresses T8, rat mGlu5 receptor (Rattus norvegicus, UniProt P31424).
T8 construct: host or cells: CHO-dhfr- cells
Description: Intracellular Ca2+ response in rat mGlu5 receptor expressing CHO-dhfr− cells (FLIPR). In kind it is cell-based. The following applies: tested up to a concentration of 10 μM. Here is the method: L929sA cells stably expressing the human mGlu1a receptor were obtained as described in Lavreysen et al., Mol. Pharmacol. 61:1244-1254, 2002 and were cultured in Glutamax-I medium supplemented with 10% heat inactivated dialysed foetal calf serum, 0.1 mg/ml streptomycin sulphate and 100 units/ml penicillin. CHO-dhfr^− cells stably expressing the rat mGlu1a, -2, -3, -4, -5 and -6 receptor were a kind gift from S. Nakanishi (Tokyo University, Japan) and were grown in DMEM with Glutamax-I with 10% heat inactivated dialysed foetal calf serum, 0.4 mM L-prolin, 0.2 mg/ml streptomycin sulphate and 200 units/ml penicillin. Cells were kept in an atmosphere of 37° C. and 5% CO2.
Intracellular calcium ion levels ([Ca^2+]i) in human mGlu1a receptor expressing L929sA cells were measured using the Fluorometric Imaging Plate Reader (FLIPR, Molecular Devices, CA, USA), as described in Lavreysen et al., Mol. Pharmacol. 61:1244-1254, 2002. The same procedure was followed for CHO-dhfr^− cells expressing the rat mGlu1a receptor. For the rat mGlu5 receptor, cells were seeded at 30.000 cells/well 2 days before the experiment.

For assay [13], the target named is T1, rat mGlu1a receptor. In words: [3H]Compound A binding to rat mGlu1a receptor CHO-dhfr− membranes (saturation, kinetics, inhibition). The following applies: mean ± SD of 3–4 experiments.
Assay [14] has as its target T8, rat mGlu5 receptor. Description: [3H]MPEP binding to rat mGlu5 receptor CHO-dhfr− membranes. Conditions: rat mGlu5 receptor containing membranes; positive control.
Where [15] appears, read: read-out: IC50 for inhibition of glutamate-induced [35S]GTPγS activation.
The mark [16] stands for this setting: ratio of IC50 values, rat mGlu1a Ca2+ assay.

T7 sequence (P31422 23-879): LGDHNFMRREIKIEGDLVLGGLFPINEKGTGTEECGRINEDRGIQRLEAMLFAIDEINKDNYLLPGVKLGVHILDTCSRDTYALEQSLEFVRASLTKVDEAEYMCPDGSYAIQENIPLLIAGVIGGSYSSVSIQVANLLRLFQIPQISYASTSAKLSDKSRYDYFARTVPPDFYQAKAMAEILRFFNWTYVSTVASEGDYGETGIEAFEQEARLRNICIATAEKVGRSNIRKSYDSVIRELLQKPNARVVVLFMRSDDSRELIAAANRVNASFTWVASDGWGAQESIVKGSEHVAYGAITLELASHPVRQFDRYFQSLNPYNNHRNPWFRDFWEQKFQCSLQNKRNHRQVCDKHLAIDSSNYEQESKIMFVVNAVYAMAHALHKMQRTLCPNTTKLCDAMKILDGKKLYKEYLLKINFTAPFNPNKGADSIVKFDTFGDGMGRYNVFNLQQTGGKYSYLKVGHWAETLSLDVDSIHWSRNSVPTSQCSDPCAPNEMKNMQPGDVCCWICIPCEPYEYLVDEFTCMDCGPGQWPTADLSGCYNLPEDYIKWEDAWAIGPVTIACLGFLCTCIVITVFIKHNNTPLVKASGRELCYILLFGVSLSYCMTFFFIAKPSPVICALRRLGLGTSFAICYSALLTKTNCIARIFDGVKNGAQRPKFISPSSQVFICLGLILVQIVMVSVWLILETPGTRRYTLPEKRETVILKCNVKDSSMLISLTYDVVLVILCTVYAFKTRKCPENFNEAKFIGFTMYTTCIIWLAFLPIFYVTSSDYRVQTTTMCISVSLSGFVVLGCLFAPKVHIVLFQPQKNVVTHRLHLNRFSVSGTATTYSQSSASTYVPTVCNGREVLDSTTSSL
T1 sequence (P23385 19-1199): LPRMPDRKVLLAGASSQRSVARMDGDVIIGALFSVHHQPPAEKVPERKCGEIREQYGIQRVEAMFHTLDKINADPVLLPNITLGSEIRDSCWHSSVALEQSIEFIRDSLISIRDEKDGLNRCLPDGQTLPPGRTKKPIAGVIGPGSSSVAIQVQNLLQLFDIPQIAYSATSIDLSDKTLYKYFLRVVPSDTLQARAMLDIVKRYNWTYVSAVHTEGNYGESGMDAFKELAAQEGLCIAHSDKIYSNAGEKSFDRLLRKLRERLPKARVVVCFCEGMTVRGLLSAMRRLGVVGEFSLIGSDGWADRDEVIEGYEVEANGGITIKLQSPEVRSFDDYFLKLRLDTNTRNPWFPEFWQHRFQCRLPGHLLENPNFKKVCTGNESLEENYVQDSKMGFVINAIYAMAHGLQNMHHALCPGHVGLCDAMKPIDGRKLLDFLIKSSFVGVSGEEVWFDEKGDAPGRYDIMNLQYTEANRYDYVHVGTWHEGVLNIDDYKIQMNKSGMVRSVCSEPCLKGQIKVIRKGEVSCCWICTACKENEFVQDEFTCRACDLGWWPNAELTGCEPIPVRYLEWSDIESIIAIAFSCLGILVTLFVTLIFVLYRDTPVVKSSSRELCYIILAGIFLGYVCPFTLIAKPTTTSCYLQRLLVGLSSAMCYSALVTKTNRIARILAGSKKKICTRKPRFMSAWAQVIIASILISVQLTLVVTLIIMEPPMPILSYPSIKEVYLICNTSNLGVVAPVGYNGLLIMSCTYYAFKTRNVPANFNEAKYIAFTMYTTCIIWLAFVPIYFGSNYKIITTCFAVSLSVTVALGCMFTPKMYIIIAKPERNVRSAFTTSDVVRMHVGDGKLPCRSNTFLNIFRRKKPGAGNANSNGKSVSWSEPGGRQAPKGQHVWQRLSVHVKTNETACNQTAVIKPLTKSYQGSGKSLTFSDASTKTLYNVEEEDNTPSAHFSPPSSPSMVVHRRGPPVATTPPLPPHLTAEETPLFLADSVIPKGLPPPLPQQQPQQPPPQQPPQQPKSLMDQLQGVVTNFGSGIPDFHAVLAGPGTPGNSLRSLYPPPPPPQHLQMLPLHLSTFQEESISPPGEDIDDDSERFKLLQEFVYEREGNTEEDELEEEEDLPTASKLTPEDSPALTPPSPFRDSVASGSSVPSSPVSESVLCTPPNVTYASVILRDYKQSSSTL
T3 sequence (P31423 33-912): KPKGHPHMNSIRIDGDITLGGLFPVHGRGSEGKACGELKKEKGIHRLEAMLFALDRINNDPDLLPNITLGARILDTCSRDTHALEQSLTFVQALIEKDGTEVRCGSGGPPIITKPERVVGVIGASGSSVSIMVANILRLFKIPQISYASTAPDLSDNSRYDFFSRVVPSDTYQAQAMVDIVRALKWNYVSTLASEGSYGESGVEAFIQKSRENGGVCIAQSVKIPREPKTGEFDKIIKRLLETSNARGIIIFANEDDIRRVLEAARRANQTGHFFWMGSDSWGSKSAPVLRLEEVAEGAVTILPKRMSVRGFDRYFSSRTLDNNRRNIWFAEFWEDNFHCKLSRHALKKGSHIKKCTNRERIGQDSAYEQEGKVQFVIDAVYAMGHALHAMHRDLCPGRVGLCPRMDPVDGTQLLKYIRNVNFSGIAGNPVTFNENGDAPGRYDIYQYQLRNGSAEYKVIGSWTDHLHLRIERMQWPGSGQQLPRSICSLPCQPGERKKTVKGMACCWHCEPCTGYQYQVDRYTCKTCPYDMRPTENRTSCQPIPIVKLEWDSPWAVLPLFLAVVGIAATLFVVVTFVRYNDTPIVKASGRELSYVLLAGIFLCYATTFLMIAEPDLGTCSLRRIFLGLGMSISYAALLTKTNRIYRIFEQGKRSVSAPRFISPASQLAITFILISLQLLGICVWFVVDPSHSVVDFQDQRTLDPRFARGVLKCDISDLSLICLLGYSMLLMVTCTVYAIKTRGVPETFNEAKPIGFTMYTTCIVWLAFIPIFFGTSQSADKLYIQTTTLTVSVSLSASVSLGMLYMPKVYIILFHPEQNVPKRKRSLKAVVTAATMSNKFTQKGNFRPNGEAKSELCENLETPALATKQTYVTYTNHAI
T6 sequence (P35349 24-871): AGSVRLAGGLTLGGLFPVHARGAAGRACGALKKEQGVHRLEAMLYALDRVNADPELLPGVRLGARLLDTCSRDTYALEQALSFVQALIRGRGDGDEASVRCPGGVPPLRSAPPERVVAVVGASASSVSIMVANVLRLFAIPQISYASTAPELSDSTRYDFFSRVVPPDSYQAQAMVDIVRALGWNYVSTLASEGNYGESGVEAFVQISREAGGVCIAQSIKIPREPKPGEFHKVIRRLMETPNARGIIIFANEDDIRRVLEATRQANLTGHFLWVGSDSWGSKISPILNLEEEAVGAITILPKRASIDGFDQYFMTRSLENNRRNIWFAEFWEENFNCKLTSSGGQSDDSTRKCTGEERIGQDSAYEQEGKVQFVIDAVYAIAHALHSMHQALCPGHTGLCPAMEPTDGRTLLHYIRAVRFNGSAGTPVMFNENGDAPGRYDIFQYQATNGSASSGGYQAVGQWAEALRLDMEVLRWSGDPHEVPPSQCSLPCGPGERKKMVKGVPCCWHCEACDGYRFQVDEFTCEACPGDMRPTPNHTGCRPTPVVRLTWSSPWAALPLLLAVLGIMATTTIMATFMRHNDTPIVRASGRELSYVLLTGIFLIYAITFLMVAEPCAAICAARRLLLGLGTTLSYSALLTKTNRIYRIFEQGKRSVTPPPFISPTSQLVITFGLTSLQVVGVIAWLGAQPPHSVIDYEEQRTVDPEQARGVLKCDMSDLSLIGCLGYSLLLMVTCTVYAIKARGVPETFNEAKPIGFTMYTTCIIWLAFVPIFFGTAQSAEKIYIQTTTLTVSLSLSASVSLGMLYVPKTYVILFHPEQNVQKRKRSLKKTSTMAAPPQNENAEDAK
T4 sequence (P31421 19-872): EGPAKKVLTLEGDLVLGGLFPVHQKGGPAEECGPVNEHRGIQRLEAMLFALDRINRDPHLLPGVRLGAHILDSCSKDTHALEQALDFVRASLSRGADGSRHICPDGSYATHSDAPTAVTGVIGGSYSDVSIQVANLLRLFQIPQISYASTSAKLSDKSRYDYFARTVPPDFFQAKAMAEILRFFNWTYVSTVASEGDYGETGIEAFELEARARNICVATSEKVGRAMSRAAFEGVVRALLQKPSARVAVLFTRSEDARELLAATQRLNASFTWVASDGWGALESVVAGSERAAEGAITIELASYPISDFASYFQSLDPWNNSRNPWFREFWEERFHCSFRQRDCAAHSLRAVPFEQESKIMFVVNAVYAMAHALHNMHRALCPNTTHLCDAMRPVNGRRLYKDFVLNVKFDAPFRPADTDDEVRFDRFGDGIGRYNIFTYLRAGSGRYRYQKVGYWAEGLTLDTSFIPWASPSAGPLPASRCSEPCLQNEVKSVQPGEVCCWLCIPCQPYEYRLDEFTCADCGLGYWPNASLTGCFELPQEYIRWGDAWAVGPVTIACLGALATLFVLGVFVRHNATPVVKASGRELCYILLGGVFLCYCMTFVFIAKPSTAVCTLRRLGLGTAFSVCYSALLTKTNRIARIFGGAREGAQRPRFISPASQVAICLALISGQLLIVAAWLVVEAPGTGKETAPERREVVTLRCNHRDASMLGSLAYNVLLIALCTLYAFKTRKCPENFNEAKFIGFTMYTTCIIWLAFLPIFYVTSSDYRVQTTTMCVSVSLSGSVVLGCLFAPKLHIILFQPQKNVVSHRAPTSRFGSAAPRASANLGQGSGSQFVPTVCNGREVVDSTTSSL

Regarding `O=C(Cc1ccccc1)c1ccc2nc3c(cc2c1)CCCO3` [Compound A], the inhibition constant Ki in [1] was over 1000 µM; in [13] (2.5 nM [3H]Compound A, 30 min at 4° C.) it was 1.35 ± 0.99 nM. The “effect on [3H]quisqualate binding (in words)” value in assay [1] (rat mGlu1a receptor CHO-dhfr− membranes) is on record as “did not displace”. Moreover, the “binding to the glycine site of the NMDA receptor” value in assay [2] was “nor did it bind”. Moreover, the “glutamate Emax upon addition of compound (positive allosteric modulation)” value is recorded as “not increased” in assay [3] (10 μM compound together with glutamate, rat mGlu4); “not increased” in assay [5] (10 μM compound together with glutamate, rat mGlu2); “not increased” in assay [10] (10 μM compound together with glutamate, rat mGlu6); “not increased” in assay [11] (10 μM compound together with glutamate, rat mGlu3). Moreover, the IC50 in assay [3] (setting [15]) was over 30 µM; in assay [5] (setting [15]), over 30 µM; in assay [8], 0.0104 ± 0.0047 µM; in assay [9] (read-out: IC50, inhibition of the glutamate-induced increase in [Ca2+]i) it was 0.0216 ± 0.005 µM; in assay [10] (setting [15]), over 30 µM; in [11] (setting [15]) it was over 30 µM. In addition, the “agonist activity in [35S]GTPγS assay” value was “did not exhibit agonist activity” in assay [3] (up to 30 μM, rat mGlu4); “did not exhibit agonist activity” in assay [5] (up to 30 μM, rat mGlu2); “did not exhibit agonist activity” in assay [10] (up to 30 μM, rat mGlu6); “did not exhibit agonist activity” in assay [11] (up to 30 μM, rat mGlu3). In assay [4] (1 μM compound, p<0.05), the “decrease of basal IP accumulation” value is 24±4%. Moreover, in assay [4] (100 μM compound), the “maximal decrease of basal IP accumulation” value was 33±3%. Also, in assay [6], the “binding to the AMPA receptor” value is recorded as “did not bind”. In addition, in [7], the “binding to the glutamate site of the NMDA receptor” value is given as “nor did it bind”. The mode of antagonism entry in assay [9] (glutamate concentration-response curve in absence and presence of compound (FIG. 1B)) is reported as “non-competitive”. Moreover, the “inhibition of mGlu1a receptor-mediated signalling” value in assay [9] (in the presence of 100 nM-1 μM compound) is listed as “Complete inhibition”. Moreover, in assay [9] (setting [16]), the “times more potent than BAY 36-7620” value was “about 8 times”. In assay [9] (setting [16]), the “times more potent than CPCCOEt” value is recorded as about 500 times. For the same compound, the “inhibition of glutamate-induced Ca2+ signaling” value in [12] was “did not inhibit”. In [13] (inhibition of [3H]Compound A-binding), this compound yielded a Hill coefficient of 0.94 ± 0.04.
`Cc1cccc(C#Cc2ccccc2)n1` [[^3H]MPEP]: in assay [14], the specific binding was found to be 95%.

As a reminder, the Ki is a dissociation constant, usually derived from enzyme kinetics or from competition with a known ligand. A high value points to a looser hold on the target. The IC50 is the concentration needed to halve the response being measured. What is called Hill coefficient is the slope factor of the fitted curve.
